Patent US20250129069A1, “TRIAZOLO WRN INHIBITORS” (Nimbus Wadjet, Inc., priority 2023, published 2025)
Where two headings read alike, the source gives them in different places.

Legend:
[1] = target: human Werner helicase (WRN, amino acids 517-1235 with L1074F point mutation) (Homo sapiens (Human), UniProt Q14191, L1074F); test: WRN (BV08) ADP-Glo assay; assay type: biochemical; conditions: human WRN (aa 517-1235, L1074F), read-out: ADP-Glo_hWRN_IC50
How it was run: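 ADP-Glo luminescence read after 60 min, 25 °C reaction of 0.15 nM WRN (517-1235, L1074F, Sf9-expressed, tag removed) with 0.1 nM DNA duplex and 5 μM ATP, following 15 min compound preincubation; 20 mM Bicine pH 7.5, 1% DMSO. IC50 from 3- or 4-parameter fit of % inhibition.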

[2] = test system: p21 induction in HCT 116 cells; test: p21 induction in cells (In-Cell Western, p21/GAPDH ratio); assay type: cell-based; conditions: 24 h compound incubation, read-out: p21_EC50
How it was run: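 EC50 values come from nonlinear fits of percent activation, defined by the 800/700 nm p21-to-GAPDH ratio scaled between DMSO (low) and internal WRN inhibitor (high) controls. In-Cell Western read after 24 h compound exposure of HCT 116 cells at 37° C. Duplicate 11-point series, 2-fold steps, usually starting at 10 μM.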

human Werner helicase (WRN, amino acids 517-1235 with L1074F point mutation), sequence (Q14191 other isoform, or with tags, fused parts or gaps L1074F (already in the parent)): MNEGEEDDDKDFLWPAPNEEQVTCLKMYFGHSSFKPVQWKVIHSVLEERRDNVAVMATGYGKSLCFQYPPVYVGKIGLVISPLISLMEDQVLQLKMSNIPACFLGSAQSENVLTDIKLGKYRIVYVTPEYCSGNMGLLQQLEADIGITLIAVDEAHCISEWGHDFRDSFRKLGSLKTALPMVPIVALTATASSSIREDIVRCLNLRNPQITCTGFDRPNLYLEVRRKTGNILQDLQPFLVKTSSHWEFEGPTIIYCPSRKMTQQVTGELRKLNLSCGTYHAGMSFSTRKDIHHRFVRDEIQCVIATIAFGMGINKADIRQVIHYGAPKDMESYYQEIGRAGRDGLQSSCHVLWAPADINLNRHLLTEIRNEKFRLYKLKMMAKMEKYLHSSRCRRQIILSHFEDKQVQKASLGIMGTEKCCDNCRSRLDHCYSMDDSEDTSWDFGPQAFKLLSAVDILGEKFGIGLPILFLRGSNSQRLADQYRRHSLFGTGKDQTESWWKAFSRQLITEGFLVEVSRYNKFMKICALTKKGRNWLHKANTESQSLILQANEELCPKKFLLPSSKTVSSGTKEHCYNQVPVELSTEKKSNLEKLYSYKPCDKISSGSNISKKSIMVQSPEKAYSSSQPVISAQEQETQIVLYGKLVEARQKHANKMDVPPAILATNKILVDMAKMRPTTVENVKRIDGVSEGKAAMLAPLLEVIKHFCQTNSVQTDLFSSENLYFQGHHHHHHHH

| IC50 [1] [nM] | EC50 ([2]; Homo sapiens) [nM] | EC50 [2] [nM] | SMILES |
| --- | --- | --- | --- |
| 5 to 50 | 2000 to 5000 |  | CCc1c(N2CCN(C(=O)c3ncnc(C)c3O)[C@H]3CC[C@@H]32)c(=O)c2nn(-c3ccnc(OC)c3)nc2n1CC(=O)NC1CC2(C1)CC(C)(C)C2 [Compound I-72, N-{6,6-dimethylspiro[3.3]heptan-2-yl}-2-{5-ethyl-6-[(1S,6S)-5-(5-hydroxy-6-methylpyrimidine-4-carbonyl)-2,5-diazabicyclo[4.2.0]octan-2-yl]-2-(2-methoxypyridin-4-yl)-7-oxo-2H,4H,7H-[1,2,3]triazolo[4,5-b]pyridin-4-yl}acetamide] |
| 5 to 50 | > 5000 |  | CCc1c(N2CCN(C(=O)c3c(OC)ccc[n+]3[O-])CC2)c(=O)c2nn(C3=CCOCC3)nc2n1CC(=O)Nc1ccc(C(F)(F)F)cc1Cl [Compound I-214, 2-{4-[4-({[2-chloro-4-(trifluoromethyl)phenyl]carbamoyl}methyl)-2-(3,6-dihydro-2H-pyran-4-yl)-5-ethyl-7-oxo-2H,4H,7H-[1,2,3]triazolo[4,5-b]pyridin-6-yl]piperazine-1-carbonyl}-3-methoxypyridin-1-ium-1-olate] |
| > 500 | > 5000 |  | CCc1c(N2CCN(C(=O)c3c(OC)ncc(C)c3O)CC2)c(=O)c2nn(-c3ccnc(OC)c3)nc2n1CC(=O)NC12CC(N3CCCC3)(C1)C2 [Compound I-124, 2-{5-ethyl-6-[4-(4-hydroxy-2-methoxy-5-methylpyridine-3-carbonyl)piperazin-1-yl]-2-(2-methoxypyridin-4-yl)-7-oxo-2H,4H,7H-[1,2,3]triazolo[4,5-b]pyridin-4-yl}-N-[3-(pyrrolidin-1-yl)bicyclo[1.1.1]pentan-1-yl]acetamide] |
| 5 to 50 | ≤ 500 |  | CCc1c(N2CCN(C(=O)c3cncnc3OC)[C@H]3CC[C@@H]32)c(=O)c2nn(C3=CCOCC3)nc2n1CC(=O)NC12CC(C(C)C)(C1)C2 [Compound I-201, 2-[2-(3,6-dihydro-2H-pyran-4-yl)-5-ethyl-6-[(1S,6S)-5-(4-methoxypyrimidine-5-carbonyl)-2,5-diazabicyclo[4.2.0]octan-2-yl]-7-oxo-2H,4H,7H-[1,2,3]triazolo[4,5-b]pyridin-4-yl]-N-[3-(propan-2-yl)bicyclo[1.1.1]pentan-1-yl]acetamide] |
| 5 to 50 | ≤ 500 |  | CCc1c(N2CCN(C(=O)c3ccc4cccc(O)c4n3)[C@H]3CC[C@@H]32)c(=O)c2nn(C3=CCOCC3)nc2n1CC(=O)NC12CC(C(C)C)(C1)C2 [Compound I-158, 2-[2-(3,6-dihydro-2H-pyran-4-yl)-5-ethyl-6-[(1S,6S)-5-(8-hydroxyquinoline-2-carbonyl)-2,5-diazabicyclo[4.2.0]octan-2-yl]-7-oxo-2H,4H,7H-[1,2,3]triazolo[4,5-b]pyridin-4-yl]-N-[3-(propan-2-yl)bicyclo[1.1.1]pentan-1-yl]acetamide] |
| 5 to 50 | ≤ 500 |  | CCc1c(N2CCN(C(=O)c3ccccc3OC)[C@H]3CC[C@@H]32)c(=O)c2nn(C3=CCOCC3)nc2n1CC(=O)NC12CC(C(C)C)(C1)C2 [Compound I-53, 2-[2-(3,6-dihydro-2H-pyran-4-yl)-5-ethyl-6-[(1S,6S)-5-(2-methoxybenzoyl)-2,5-diazabicyclo[4.2.0]octan-2-yl]-7-oxo-2H,4H,7H-[1,2,3]triazolo[4,5-b]pyridin-4-yl]-N-[3-(propan-2-yl)bicyclo[1.1.1]pentan-1-yl]acetamide] |
| 5 to 50 | ≤ 500 |  | CCc1c(N2CCN(C(=O)c3ncnc(C)c3O)[C@H]3CC[C@@H]32)c(=O)c2nn(-c3ccnc(OC)c3)nc2n1CC(=O)NC12CC(C3CC3)(C1)C2 [Compound I-10, N-(3-cyclopropylbicyclo[1.1.1]pentan-1-yl)-2-(5-ethyl-6-((1S,6S)-5-(5-hydroxy-6-methylpyrimidine-4-carbonyl)-2,5-diazabicyclo[4.2.0]octan-2-yl)-2-(2-methoxypyridin-4-yl)-7-oxo-2,7-dihydro-4H-[1,2,3]triazolo[4,5-b]pyridin-4-yl)acetamide] |
| 5 to 50 |  | ≤ 500 | CCc1c(N2CCN(C(=O)c3ncnc(C)c3O)CC2)c(=O)c2nn(-c3ccnc(OC)c3)nc2n1CC(=O)Nc1ccc(C(F)(F)F)cc1Cl [Compound I-1, N-(2-chloro-4-(trifluoromethyl)phenyl)-2-(5-ethyl-6-(4-(5-hydroxy-6-methylpyrimidine-4-carbonyl)piperazin-1-yl)-2-(2-methoxypyridin-4-yl)-7-oxo-2,7-dihydro-4H-[1,2,3]triazolo[4,5-b]pyridin-4-yl)acetamide] |
| 5 to 50 | 500 to 2000 |  | CCc1c(N2CCN(C(=O)c3ncnc(C)c3O)[C@H](C)C2)c(=O)c2nn(-c3ccnc(OC)c3)nc2n1CC(=O)NC12CC(C3CC3)(C1)C2 [Compound I-178, N-{3-cyclopropylbicyclo[1.1.1]pentan-1-yl}-2-{5-ethyl-6-[(3R)-4-(5-hydroxy-6-methylpyrimidine-4-carbonyl)-3-methylpiperazin-1-yl]-2-(2-methoxypyridin-4-yl)-7-oxo-2H,4H,7H-[1,2,3]triazolo[4,5-b]pyridin-4-yl}acetamide] |
| 5 to 50 | ≤ 500 |  | CCc1c(N2CCN(C(=O)c3ncnc(C)c3O)CC2)c(=O)c2nn(C3=CCOCC3)nc2n1CC(=O)Nc1ccc(C(F)(F)F)cc1Cl [Compound I-144, N-[2-chloro-4-(trifluoromethyl)phenyl]-2-[2-(3,6-dihydro-2H-pyran-4-yl)-5-ethyl-6-[4-(5-hydroxy-6-methylpyrimidine-4-carbonyl)piperazin-1-yl]-7-oxo-2H,4H,7H-[1,2,3]triazolo[4,5-b]pyridin-4-yl]acetamide] |
| 5 to 50 | 2000 to 5000 |  | CCc1c(C2=C(C)CN(C(=O)c3ncnc(C)c3O)CC2)c(=O)c2nn(-c3ccnc(OC)c3)nc2n1CC(=O)NC12CC(C(C)C)(C1)C2 [Compound I-78, 2-{5-ethyl-6-[1-(5-hydroxy-6-methylpyrimidine-4-carbonyl)-5-methyl-1,2,3,6-tetrahydropyridin-4-yl]-2-(2-methoxypyridin-4-yl)-7-oxo-2H,4H,7H-[1,2,3]triazolo[4,5-b]pyridin-4-yl}-N-[3-(propan-2-yl)bicyclo[1.1.1]pentan-1-yl]acetamide] |
| 5 to 50 | 500 to 2000 |  | CCc1c(N2CCN(C(=O)c3ncnc(C)c3O)CC2)c(=O)c2nn(-c3ccncc3)nc2n1CC(=O)NC12CC(CC)(C1)C2 [Compound I-138, 2-{5-ethyl-6-[4-(5-hydroxy-6-methylpyrimidine-4-carbonyl)piperazin-1-yl]-7-oxo-2-(pyridin-4-yl)-2H,4H,7H-[1,2,3]triazolo[4,5-b]pyridin-4-yl}-N-{3-ethylbicyclo[1.1.1]pentan-1-yl}acetamide] |
| 5 to 50 | ≤ 500 |  | CCc1c(N2CCN(C(=O)c3ncnc(C)c3O)[C@H]3CC[C@@H]32)c(=O)c2nn(-c3ccnc(OC)c3)nc2n1CC(=O)NC12CC(OC(F)(F)F)(C1)C2 [Compound I-29, 2-(5-ethyl-6-((1S,6S)-5-(5-hydroxy-6-methylpyrimidine-4-carbonyl)-2,5-diazabicyclo[4.2.0]octan-2-yl)-2-(2-methoxypyridin-4-yl)-7-oxo-2,7-dihydro-4H-[1,2,3]triazolo[4,5-b]pyridin-4-yl)-N-(3-(trifluoromethoxy)bicyclo[1.1.1]pentan-1-yl)acetamide] |
